Data reported in patent US6316207A, “Mouse cardiac muscle cell line, HL-1” (priority 1999, dated 2001).
Counter-ions that a name gives are not always drawn. Like-named read-outs stand apart in the source and are kept apart here.

Columns and labels:
guinea pig myocytes = conditions: read-out: Kd for [^3 H]dofetilide binding in guinea pig myocytes, mean+/-SD, n=3, Chadwick et al; cited from earlier work
[1] = target: T1, [^3 H]dofetilide binding site in HL-1 cells (IKr) (Mus musculus, UniProt O35219); experiment: biochemical
T1 sequence (O35219 1-1162): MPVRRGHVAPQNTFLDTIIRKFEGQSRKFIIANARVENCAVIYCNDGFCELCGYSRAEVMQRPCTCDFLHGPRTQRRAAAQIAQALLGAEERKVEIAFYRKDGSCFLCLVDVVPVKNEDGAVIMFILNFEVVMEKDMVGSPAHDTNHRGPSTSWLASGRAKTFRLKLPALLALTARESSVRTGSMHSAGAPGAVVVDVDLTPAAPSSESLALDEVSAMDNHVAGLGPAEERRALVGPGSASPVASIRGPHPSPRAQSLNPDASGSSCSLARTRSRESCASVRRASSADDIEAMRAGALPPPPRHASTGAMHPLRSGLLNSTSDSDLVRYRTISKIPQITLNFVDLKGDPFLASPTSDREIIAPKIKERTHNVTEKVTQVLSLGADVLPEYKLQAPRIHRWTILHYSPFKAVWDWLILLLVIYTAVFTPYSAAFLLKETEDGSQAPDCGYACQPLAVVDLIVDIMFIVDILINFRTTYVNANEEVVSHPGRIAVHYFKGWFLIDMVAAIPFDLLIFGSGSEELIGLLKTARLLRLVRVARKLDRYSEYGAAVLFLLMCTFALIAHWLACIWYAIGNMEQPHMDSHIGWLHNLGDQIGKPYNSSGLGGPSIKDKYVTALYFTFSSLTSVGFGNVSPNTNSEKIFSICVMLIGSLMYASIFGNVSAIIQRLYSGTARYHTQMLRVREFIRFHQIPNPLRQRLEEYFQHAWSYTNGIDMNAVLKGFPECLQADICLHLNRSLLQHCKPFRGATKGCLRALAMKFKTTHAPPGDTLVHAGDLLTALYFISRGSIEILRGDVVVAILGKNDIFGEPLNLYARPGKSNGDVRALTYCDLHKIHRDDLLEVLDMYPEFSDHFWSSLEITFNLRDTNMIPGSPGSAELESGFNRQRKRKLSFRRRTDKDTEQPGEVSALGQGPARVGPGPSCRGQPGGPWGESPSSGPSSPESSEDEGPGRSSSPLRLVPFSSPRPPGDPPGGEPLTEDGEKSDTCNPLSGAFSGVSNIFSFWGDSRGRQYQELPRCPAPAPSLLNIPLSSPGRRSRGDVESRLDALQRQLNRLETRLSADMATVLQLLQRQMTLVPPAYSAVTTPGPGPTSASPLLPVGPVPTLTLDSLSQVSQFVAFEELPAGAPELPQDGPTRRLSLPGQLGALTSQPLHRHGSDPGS
Description: HL-1 cells from passages 60 to 80 are dissociated from tissue culture flasks with a 5 min incubation with 0.1% trypsin (Clonetics, San Diego) followed by inactivation in a trypsin neutralizing solution (Clonetics, San Diego). The cells are suspended in a buffer containing (mM) KCl 40, KH2 PO4 20, MgCl2 5, KHCO3 0.5, glucose 10, potassium glutamate5 0, potassium asparate 20, EGTA 1 and HEPES (N-[2-Hydroxyethyl]piperazine-N'-[2-ethanesulfonic acid]) 10, adjusted to pH 7.4 with KOH and containing 0.1% bovine serum albumin (BSA). […] The cells are then filtered on GF/C Unifilter® 96 well filter plates (Packard, Meriden, Conn.) using a Packard Micromate496® harvester. Filter plates are presoaked with wash buffer (25 mM Tris-HCl, 130 mM NaCl, 5.5 mM KCl, 0.8 mM MgCl2 and 50 μM CaCl2 [pH 7.4]) containing 1.0% BSA and washed following harvesting at room temperature with four ×1 ml washes of the same buffer without BSA.

[2] = tested on: IKr in guinea pig myocytes; conditions: cited from earlier work
[3] = tested on: [^3 H]dofetilide binding site in guinea pig myocytes; conditions: cited from earlier work
[4] = tested on: IKr in rabbit ventricular myocytes; conditions: Carmeliet 1992, read-out: IC50 reported for IKr in rabbit ventricular myocytes; cited from earlier work
HL-1 cells = experiment: Contractile activity (spontaneous beating) of HL-1 cells; type: cell-based, mouse
Description: CONTRACTILE ACTIVITY OF HL-1 CELLS
HL-1 cells are found to respond to several pharmacological agents in a manner expected for cardiomyocytes. Confluent cultures of HL-1 cells at passage 33 in growth medium (without norepinephrine or retinoic acid) display spontaneous contractile activity (beating).
In other experiments, spontaneously beating confluent HL-1 cells in growth medium are stopped by adding propranolol. First, norepinephrine bitartrate is added to a final concentration of 10^-5 M. Under these stimulated conditions, propranolol is subsequently added.
To determine if the effect of 10^-4 M propranolol is reversible, the culture medium containing propranolol is removed and growth medium (without norepinephrine or retinoic acid) is added to the cell cultures.

For [3H]c1cc(OCCN(C)CCc2ccc(NS(C)(=O)=O)cc2)ccc1NS(C)(=O)=O [[^3 H]dofetilide], the Kd (guinea pig myocytes) is given as 0.07 ± 0.006 µM.

For CN1CCN(CCCCN2C(=O)CN(/N=C/c3ccc(-c4ccc(Cl)cc4)o3)C2=O)CC1 [azimilide dihydrochloride], the Kd [1] is given as 0.8 µM and the IC50 ([2]; Fermini et al 1995, read-out: IC50 for blocking the rapidly activating component of the delayed rectifier IKr) is given as 0.4 µM.

In the case of CCCCCCC[N+](CC)(CC)CCCCc1ccc(Cl)cc1 [clofilium], the Kd ([3]; cardiac myocytes) is listed as 1.29 µM.

For CN(CCOc1ccc(NS(C)(=O)=O)cc1)CCc1ccc(NS(C)(=O)=O)cc1 [dofetilide], the Kd ([3]; read-out: Kd, competition for [^3 H]dofetilide binding, Cardiac Myocytes, primary guinea pig myocytes, Chadwick et al, SEM and N in own columns) is listed as 0.1 µM, the IC50 ([2]; Jurkiewicz and Sanguinetti 1993, read-out: IC50 reported for IKr in guinea pig myocytes) is listed as 0.031 µM and the IC50 [4] is listed as 0.004 µM.

With NC[C@H](O)c1ccc(O)c(O)c1 [norepinephrine bitartrate] the “contractile activity (beating) of HL-1 cells” value (HL-1 cells; final concentration 10^-5 M, passage 33, within two minutes, growth medium without norepinephrine or retinoic acid) was “beating faster”.

For CC(C)NCC(O)COc1cccc2ccccc12 (centres unmarked) [propranolol], the “time to arrest of all contractions” value (HL-1 cells; final concentration 10^-4 M, after 10^-5 M norepinephrine bitartrate) was at most 10 min, the arrest of contractions (HL-1 cells; final concentration 10^-4 M, after stimulation with 10^-5 M norepinephrine bitartrate, within 10 minutes) was “arrests all contractions” and the “effect on contractile activity” value (HL-1 cells; final concentrations of 10^-7 M, 10^-6 M, and 10^-5 M, after 10^-5 M norepinephrine bitartrate) was “no observable effect”. The “time to recovery of contractile activity after removal of drug” value (HL-1 cells; previously exposed to 10^-4 M (printed 10^31 4 M)) was at most 1 h and the “reversibility: contractile activity after removal of drug” value (HL-1 cells; previously exposed to 10^-4 M (printed 10^31 4 M), within 1 hour after medium change) was “contractile activity similiar to control HL-1 cell not exposed to propranolol”.

For COc1ccc(CCN(C)CCCC(C#N)(c2ccc(OC)c(OC)c2)C(C)C)cc1OC (centres unmarked) [verapamil hydrochloride], the “contractile activity after addition of drug” value (HL-1 cells; final concentrations of 10^-7 M, 10^-6 M and 10^-5 M, growth medium without norepinephrine or retinoic acid) was “no observable contractile activity”.
